Measurements reported in patent US20130225675A1, “BACTERIAL CONTROL OF WATER BASED FLUIDS DURING […] AND […] TIME IN THE SU[…]” (SCHLUMBERGER TECHNOLOGY CORPORATION, priority 2010, published 2013).

System: Sulfate-Reducing Bacteria
Assay: Qualitative test kit specific to sulfate-reducing bacteria, produced water samples
Type: cell-based
Conditions: produced water from the Piceance basin, 250 ppm glutaraldehyde, "Glut+butenolide" with a further 125 ppm butenolide
Protocol: Produced water samples from the Piceancebasin were tested for bacterial content in a simple qualitative test kit manufactured by “Droycon Boiconcepts Inc., specific to Sulfate-Reducing Bacteria. Three kits were used, labeled “No treatment”, “Glutaraldehyde”, and “Glut+butenolide”. The latter two bottles were treated with 250 ppm glutaraldehyde.
FIG. 1 is a photograph series that compares the experimental results of testing the effectiveness of biocide compositions.

Compound: O=CCCCC=O [Glutaraldehyde, glutaraldehyde]
- appearance of the test bottle (black residues characteristic of the presence of SRBs) (after 14 days): clear and pale yellow
- appearance of the test bottle (re-growth of SRBs, fine black residues) (after 17 days): begun to show re-growth of SRBs
